This note sets out measurements from patent US20260207572A1, “METHODS AND COMPOSITIONS FOR TREATMENT OF SUBJECTS WITH HEPATIC IMPAIRMENTS” (ELEVAR THERAPEUTICS, INC., priority 2022, published 2026).

The series deals with T1, CYP2B6 (Homo sapiens, UniProt P20813).
T1 sequence (P20813 1-491): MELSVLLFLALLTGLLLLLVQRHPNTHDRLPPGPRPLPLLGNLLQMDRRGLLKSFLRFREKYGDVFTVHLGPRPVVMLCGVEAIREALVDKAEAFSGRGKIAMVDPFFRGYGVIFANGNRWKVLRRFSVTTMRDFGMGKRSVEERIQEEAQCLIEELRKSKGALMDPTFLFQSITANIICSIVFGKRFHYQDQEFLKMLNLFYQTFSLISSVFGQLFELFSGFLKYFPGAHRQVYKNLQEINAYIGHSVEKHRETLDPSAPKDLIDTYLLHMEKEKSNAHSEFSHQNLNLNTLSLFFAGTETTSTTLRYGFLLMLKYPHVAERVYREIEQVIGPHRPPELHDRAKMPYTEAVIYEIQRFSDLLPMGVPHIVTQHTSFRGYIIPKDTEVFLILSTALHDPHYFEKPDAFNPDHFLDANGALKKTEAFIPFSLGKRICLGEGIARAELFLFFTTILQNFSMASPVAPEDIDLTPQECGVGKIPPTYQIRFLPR
As to the kind of experiment: In vitro CYP phenotyping and metabolism study, recombinant CYP2B6. The series is classed as in vitro ADME. On the procedure:
Recently, an in vitro cytochrome (CYP) phenotyping and metabolism study was performed.

As for `N#CC1(c2ccc(NC(=O)c3cccnc3NCc3ccncc3)cc2)CCCC1` [Rivoceranib, N-[4-(1-cyanocyclopentyl)phenyl]-2-{[(pyridin-4-yl)methyl]amino} pyridine-3-carboxamide], the “rivoceranib consumed at 60 minute incubation” value (CYP2B6) is “less than 10%”. Besides, for the setting “Recombinant CYP2B6, 5 μM”, the “% Remaining at 60 minute incubation” value worked out at 96.3% and the CLINT came to 0.020 μL/minunte/mg. Moreover, the half-life at 5 µM (human, Recombinant CYP2B6, 5 μM, read-out: t½) worked out at 5.73 h.
